Experimental data from ChEMBL document CHEMBL1201862, “PubChem BioAssay data set” (2004).
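48-hour exposure; five concentrations; linearly interpolated endpoints. GI50 is the concentration that inhibits growth by half.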 Calls of active or inactive are those of the source. Cut-off read from the data, not from the text of the source: active = GI50 up to about 1.1 µM and inactive = higher.

Columns and labels:
Experiment in all cases: growth of human tumour cells (NCI), 48 h
786-0 = tested on: 786-0
DMS-273 = tested on: DMS-273
HCC 2998 = tested on: HCC 2998
HCT-116 = tested on: HCT-116
HL-60 = tested on: HL-60
IGROV-1 = tested on: IGROV-1
K562 = tested on: K562
KM12 = tested on: KM12
LOX IMVI = tested on: LOX IMVI
MOLT-4 = tested on: MOLT-4
NCI-H460 = tested on: NCI-H460
RPMI-8226 = tested on: RPMI-8226
SK-OV-3 = tested on: SK-OV-3
SN12C = tested on: SN12C
SNB-19 = tested on: SNB-19
SNB-75 = tested on: SNB-75
TK-10 = tested on: TK-10
UO-31 = tested on: UO-31
DU-145 = tested on: DU-145
MCF7 = tested on: MCF7

`O=C(Nc1ccc(Cl)c(C(F)(F)F)c1)C(=O)C(C(=O)/C=C/c1ccccc1)C1OC(=O)c2ccccc21` (configuration not stated) was tested, and the GI50 (786-0) was > 100 µM (inactive), the GI50 (DMS-273) was > 100 µM (inactive) and the GI50 (HCC 2998) was > 100 µM (inactive). The GI50 (HCT-116) was 33.1 µM (inactive), the GI50 (HL-60) was > 100 µM (inactive) and the GI50 (IGROV-1) was > 100 µM (inactive). The GI50 (K562) was > 100 µM (inactive), the GI50 (KM12) was > 100 µM (inactive) and the GI50 (LOX IMVI) was 90.2 µM (inactive). The GI50 (MOLT-4) was > 100 µM (inactive), the GI50 (NCI-H460) was > 100 µM (inactive) and the GI50 (RPMI-8226) was 72.8 µM (inactive). For the same compound, the GI50 (SK-OV-3) was > 100 µM (inactive), the GI50 (SN12C) was > 100 µM (inactive) and the GI50 (SNB-19) was > 100 µM (inactive). The GI50 (SNB-75) was > 100 µM (inactive), the GI50 (TK-10) was > 100 µM (inactive) and the GI50 (UO-31) was > 100 µM (inactive).
In the case of `O=C1[C@@H]2C(c3ccccc3[N+](=O)[O-])=[N+](c3ccccc3)O[C@@H]2C(=O)N1c1ccc(Cc2ccc(N3C(=O)[C@H]4C(c5ccccc5[N+](=O)[O-])=[N+](c5ccccc5)O[C@H]4C3=O)cc2)cc1`, the GI50 (786-0) is reported as > 100 µM (inactive), the GI50 (DMS-273) is reported as > 100 µM (inactive) and the GI50 (HCC 2998) is reported as > 100 µM (inactive). For the same compound, the GI50 (HCT-116) was > 100 µM (inactive), the GI50 (HL-60) was > 100 µM (inactive) and the GI50 (IGROV-1) was > 100 µM (inactive). The GI50 (K562) was > 100 µM (inactive), the GI50 (KM12) was > 100 µM (inactive) and the GI50 (LOX IMVI) was > 100 µM (inactive). For the same compound, the GI50 (MOLT-4) was > 100 µM (inactive), the GI50 (NCI-H460) was > 100 µM (inactive) and the GI50 (RPMI-8226) was > 100 µM (inactive). For the same compound, the GI50 (SK-OV-3) was > 100 µM (inactive), the GI50 (SN12C) was > 100 µM (inactive) and the GI50 (SNB-19) was > 100 µM (inactive). For the same compound, the GI50 (SNB-75) was > 100 µM (inactive), the GI50 (TK-10) was > 100 µM (inactive) and the GI50 (UO-31) was > 100 µM (inactive).
In the case of `FC(F)(F)c1nc(-c2ccccc2)oc1Sc1oc(-c2ccccc2)nc1C(F)(F)F`, the GI50 (786-0) is reported as > 100 µM (inactive), the GI50 (DMS-273) is reported as 66.7 µM (inactive) and the GI50 (HCC 2998) is reported as > 100 µM (inactive). The GI50 (HCT-116) was > 100 µM (inactive), the GI50 (HL-60) was > 100 µM (inactive) and the GI50 (IGROV-1) was > 100 µM (inactive). The GI50 (K562) was > 100 µM (inactive), the GI50 (KM12) was > 100 µM (inactive) and the GI50 (LOX IMVI) was > 100 µM (inactive). For the same compound, the GI50 (MOLT-4) was > 100 µM (inactive), the GI50 (NCI-H460) was 99.1 µM (inactive) and the GI50 (RPMI-8226) was 93.3 µM (inactive). The GI50 (SK-OV-3) was 65.3 µM (inactive), the GI50 (SN12C) was > 100 µM (inactive) and the GI50 (SNB-19) was 87.3 µM (inactive). The GI50 (SNB-75) was 29.7 µM (inactive), the GI50 (TK-10) was > 100 µM (inactive) and the GI50 (UO-31) was > 100 µM (inactive).
`O=[N+]([O-])c1ccc(-c2ccc(-c3csc(Nc4ccccc4)n3)o2)cc1` was tested, and the GI50 (786-0) was 17.1 µM (inactive), the GI50 (DMS-273) was 23 µM (inactive) and the GI50 (HCC 2998) was 25.1 µM (inactive). The GI50 (HCT-116) was 21.5 µM (inactive), the GI50 (HL-60) was 2.48 µM (inactive) and the GI50 (IGROV-1) was 25.1 µM (inactive). For the same compound, the GI50 (K562) was 7.59 µM (inactive), the GI50 (KM12) was 19.3 µM (inactive) and the GI50 (LOX IMVI) was 18.5 µM (inactive). The GI50 (MOLT-4) was 3.62 µM (inactive), the GI50 (NCI-H460) was 34.8 µM (inactive) and the GI50 (RPMI-8226) was 12.2 µM (inactive). For the same compound, the GI50 (SK-OV-3) was > 100 µM (inactive), the GI50 (SN12C) was 18.6 µM (inactive) and the GI50 (SNB-19) was 40 µM (inactive). The GI50 (SNB-75) was 24.9 µM (inactive), the GI50 (TK-10) was 19.1 µM (inactive) and the GI50 (UO-31) was 18.7 µM (inactive).
`COc1cc([C@@H]2c3cc4c(cc3[C@@H](NC(=O)c3ccc(C#N)cc3)C3COC(=O)[C@@H]32)OCO4)cc(OC)c1O` (some centres not stated) was tested, and the GI50 (786-0) was 0.411 µM (active), the GI50 (DMS-273) was 0.0276 µM (active) and the GI50 (HCC 2998) was 1.6 µM (inactive). The GI50 (HCT-116) was 0.459 µM (active), the GI50 (HL-60) was 0.138 µM (active) and the GI50 (IGROV-1) was 0.191 µM (active). The GI50 (K562) was 1.63 µM (inactive), the GI50 (KM12) was 1.02 µM (active) and the GI50 (LOX IMVI) was 0.26 µM (active). The GI50 (MOLT-4) was 3.63 µM (inactive), the GI50 (NCI-H460) was < 0.01 µM (active) and the GI50 (RPMI-8226) was 2.84 µM (inactive). For the same compound, the GI50 (SK-OV-3) was 0.374 µM (active), the GI50 (SN12C) was 0.207 µM (active) and the GI50 (SNB-19) was 0.348 µM (active). For the same compound, the GI50 (SNB-75) was 0.673 µM (active), the GI50 (TK-10) was 1.81 µM (inactive) and the GI50 (UO-31) was 4.03 µM (inactive).
`O/N=N/c1cnccn1` was tested, and the GI50 (786-0) was > 1250 µM (inactive), the GI50 (DMS-273) was > 1250 µM (inactive) and the GI50 (DU-145) was 1090 µM (inactive). For the same compound, the GI50 (HCC 2998) was > 1250 µM (inactive), the GI50 (HCT-116) was > 1230 µM (inactive) and the GI50 (HL-60) was 322 µM (inactive). For the same compound, the GI50 (IGROV-1) was > 1150 µM (inactive), the GI50 (K562) was > 1190 µM (inactive) and the GI50 (KM12) was > 1250 µM (inactive). The GI50 (LOX IMVI) was 1190 µM (inactive), the GI50 (MCF7) was 531 µM (inactive) and the GI50 (MOLT-4) was 196 µM (inactive). For the same compound, the GI50 (NCI-H460) was 724 µM (inactive), the GI50 (RPMI-8226) was > 1250 µM (inactive) and the GI50 (SK-OV-3) was > 269 µM (inactive). The GI50 (SN12C) was > 1250 µM (inactive), the GI50 (SNB-19) was > 1250 µM (inactive) and the GI50 (SNB-75) was > 1110 µM (inactive). For the same compound, the GI50 (TK-10) was > 1250 µM (inactive) and the GI50 (UO-31) was > 1250 µM (inactive).
In the case of `CCN(CC)CCC(=O)O[C@H]1CC[C@H](CC(C)[C@H]2CC(=O)C(C)C=C(C)[C@H](OC(=O)CCN(CC)CC)C(OC)C(=O)[C@@H](C)CC(C)/C=C/C=C/C=C(C)C(OC)CC3CC[C@H](C)[C@](O)(O3)C(=O)C(=O)N3CCCCC3C(=O)O2)CC1OC` (some centres not stated), the GI50 (786-0) is reported as 0.0197 µM (active), the GI50 (DMS-273) is reported as 0.361 µM (active) and the GI50 (DU-145) is reported as 0.179 µM (active). For the same compound, the GI50 (HCC 2998) was 0.267 µM (active), the GI50 (HCT-116) was 0.865 µM (active) and the GI50 (KM12) was 0.443 µM (active). The GI50 (LOX IMVI) was 0.0222 µM (active), the GI50 (MCF7) was < 0.026 µM (active) and the GI50 (MOLT-4) was 0.0185 µM (active). For the same compound, the GI50 (NCI-H460) was 0.157 µM (active), the GI50 (SK-OV-3) was 0.0314 µM (active) and the GI50 (SN12C) was 0.0847 µM (active). The GI50 (SNB-19) was 0.0571 µM (active), the GI50 (SNB-75) was 0.0179 µM (active) and the GI50 (TK-10) was 0.627 µM (active). For the same compound, the GI50 (UO-31) was < 0.01 µM (active).
`CC(=O)OC1[C@H]2c3cc4c(cc3CN3CCC(C[C@@H]1OC(C)=O)C23)OCO4` (some centres not stated) was tested, and the GI50 (786-0) was > 75 µM (inactive), the GI50 (DMS-273) was > 75 µM (inactive) and the GI50 (HCC 2998) was > 75 µM (inactive). The GI50 (HCT-116) was > 75 µM (inactive), the GI50 (HL-60) was > 75 µM (inactive) and the GI50 (IGROV-1) was > 75 µM (inactive). For the same compound, the GI50 (K562) was > 75 µM (inactive), the GI50 (KM12) was > 75 µM (inactive) and the GI50 (LOX IMVI) was > 75 µM (inactive). The GI50 (MOLT-4) was > 75 µM (inactive), the GI50 (NCI-H460) was > 75 µM (inactive) and the GI50 (RPMI-8226) was > 75 µM (inactive). For the same compound, the GI50 (SK-OV-3) was > 75 µM (inactive), the GI50 (SN12C) was > 75 µM (inactive) and the GI50 (SNB-19) was > 75 µM (inactive). The GI50 (SNB-75) was > 75 µM (inactive), the GI50 (TK-10) was > 75 µM (inactive) and the GI50 (UO-31) was > 75 µM (inactive).
With `Fc1cccc(F)c1C1SCc2nc3ccccc3n21` (configuration not stated) [THIAZOLOBENZIMIDAZOLE] the GI50 (786-0) was > 100 µM (inactive), the GI50 (DMS-273) was 50.2 µM (inactive) and the GI50 (HCC 2998) was > 100 µM (inactive). The GI50 (HCT-116) was 65.2 µM (inactive), the GI50 (HL-60) was 25.4 µM (inactive) and the GI50 (IGROV-1) was 80.9 µM (inactive). For the same compound, the GI50 (K562) was 36.5 µM (inactive), the GI50 (KM12) was > 100 µM (inactive) and the GI50 (LOX IMVI) was 80.4 µM (inactive). The GI50 (MOLT-4) was 35.3 µM (inactive), the GI50 (NCI-H460) was 47.3 µM (inactive) and the GI50 (RPMI-8226) was 35.2 µM (inactive). For the same compound, the GI50 (SK-OV-3) was > 100 µM (inactive), the GI50 (SN12C) was > 100 µM (inactive) and the GI50 (SNB-19) was > 100 µM (inactive). The GI50 (SNB-75) was > 100 µM (inactive), the GI50 (TK-10) was 61.4 µM (inactive) and the GI50 (UO-31) was 51.5 µM (inactive).
